Measured values as given in ChEMBL document CHEMBL3885861, “Open TG-GATES”.

Organism: Rattus norvegicus
Test: Open TG-GATES - Regimen: Daily Repeat
Format: toxicity, organism-based, Sprague-Dawley
Set-up: regimen Daily Repeat, gender Male, age 6 weeks
Details: in vivo, po, 1000 mg/kg, route gavage, dose level High; for APTT / Bas / Eos / Fbg / Hb / Ht / Lym / MCH / MCHC / MCV / Mono / Neu / PT / Plat / RBC / Ret / WBC: tissue Blood; for KIDNEY_L / KIDNEY_R / KIDNEY_TOTAL: tissue Kidney; for LIVER: tissue Liver; for A/G / ALP / ALT / AST / BUN / CRE / Ca / Cl / DBIL / GLC / IP / K / LDH / Na / PL / RALB / TBIL / TC / TG / TP / gamma-GTP: tissue Plasma

## CN/C(=N/CCSCc1nc[nH]c1C)NC#N [CIMETIDINE]
72 h, time 3 day
  TERMINAL_BW: 228.7 g
  APTT: 18.9 s
  Bas: 0%
  Eos: 1%
  Fbg: 228.6 mg/dL
  Hb: 13.1 g/dL
  Ht: 38.7%
  Lym: 80.8%
  MCH: 21.1 pg
  MCHC: 33.8%
  MCV: 62.3 fL
  Mono: 2.6%
  Neu: 14.8%
  PT: 12.7 s
  Plat: 135 x10_4/uL
  RBC: 620.4 x10_4/ul
  Ret: 5.4%
  WBC: 96.4 x10_2/uL
  KIDNEY_L: 1 g
  KIDNEY_R: 1 g
  KIDNEY_TOTAL: 2 g
  LIVER: 11.5 g
  A/G: 1.6
  ALP: 1004 IU/L
  ALT: 40 IU/L
  AST: 74 IU/L
  BUN: 16.2 mg/dL
  CRE: 0.4 mg/dL
  Ca: 11 mg/dL
  Cl: 102.8 meq/L
  DBIL: 0.1 mg/dL
  GLC: 201.6 mg/dL
  IP: 7 mg/dL
  K: 3.8 meq/L
  LDH: 190.8 IU/L
  Na: 140.8 meq/L
  PL: 156.6 mg/dL
  RALB: 3.4 g/dL
  TBIL: 0.2 mg/dL
  TC: 79.8 mg/dL
  TG: 118.6 mg/dL
  TP: 5.5 g/dL
  gamma-GTP: 1.2 IU/L
[…], time 7 day
  TERMINAL_BW: 263.6 g
  APTT: 16.9 s
  Bas: 0%
  Eos: 1%
  Fbg: 235.6 mg/dL
  Hb: 13.6 g/dL
  Ht: 40.7%
  Lym: 81%
  MCH: 21.1 pg
  MCHC: 33.5%
  MCV: 62.9 fL
  Mono: 2.6%
  Neu: 14.4%
  PT: 12.6 s
  Plat: 121.2 x10_4/uL
  RBC: 646.4 x10_4/ul
  Ret: 5%
  WBC: 94.8 x10_2/uL
  KIDNEY_L: 1.1 g
  KIDNEY_R: 1.1 g
  KIDNEY_TOTAL: 2.2 g
  LIVER: 12.9 g
  A/G: 1.4
  ALP: 1073 IU/L
  ALT: 38.4 IU/L
  AST: 72.2 IU/L
  BUN: 17 mg/dL
  CRE: 0.5 mg/dL
  Ca: 11 mg/dL
  Cl: 101.8 meq/L
  DBIL: 0.096 mg/dL
  GLC: 216 mg/dL
  IP: 7.9 mg/dL
  K: 4 meq/L
  LDH: 279.2 IU/L
  Na: 140.4 meq/L
  PL: 165.8 mg/dL
  RALB: 3.3 g/dL
  TBIL: 0.1 mg/dL
  TC: 79.4 mg/dL
  TG: 134.4 mg/dL
  TP: 5.6 g/dL
  gamma-GTP: 1.8 IU/L
[…], time 14 day
  TERMINAL_BW: 302.5 g
  APTT: 20.1 s
  Bas: 0%
  Eos: 1%
  Fbg: 225.8 mg/dL
  Hb: 14.2 g/dL
  Ht: 43.3%
  Lym: 80.8%
  MCH: 19.5 pg
  MCHC: 32.6%
  MCV: 59.7 fL
  Mono: 2.2%
  Neu: 15.4%
  PT: 12.9 s
  Plat: 128 x10_4/uL
  RBC: 726.4 x10_4/ul
  Ret: 4.3%
  WBC: 110.4 x10_2/uL
  KIDNEY_L: 1.2 g
  KIDNEY_R: 1.3 g
  KIDNEY_TOTAL: 2.5 g
  LIVER: 14.1 g
  A/G: 1.4
  ALP: 808 IU/L
  ALT: 31.2 IU/L
  AST: 62.2 IU/L
  BUN: 19 mg/dL
  CRE: 0.4 mg/dL
  Ca: 10.7 mg/dL
  Cl: 101.8 meq/L
  DBIL: 0.1 mg/dL
  GLC: 213.4 mg/dL
  IP: 7.7 mg/dL
  K: 3.7 meq/L
  LDH: 186.8 IU/L
  Na: 141 meq/L
  PL: 165.6 mg/dL
  RALB: 3.4 g/dL
  TBIL: 0.2 mg/dL
  TC: 85.8 mg/dL
  TG: 111.2 mg/dL
  TP: 5.8 g/dL
  gamma-GTP: 1.8 IU/L
[…], time 28 day
  TERMINAL_BW: 396.8 g
  APTT: 19.4 s
  Bas: 0%
  Eos: 1.6%
  Fbg: 216.2 mg/dL
  Hb: 14.9 g/dL
  Ht: 43.2%
  Lym: 83.4%
  MCH: 19 pg
  MCHC: 34.4%
  MCV: 55.3 fL
  Mono: 2%
  Neu: 12.6%
  PT: 13.2 s
  Plat: 102.4 x10_4/uL
  RBC: 782 x10_4/ul
  Ret: 2.9%
  WBC: 177.7 x10_2/uL
  KIDNEY_L: 1.4 g
  KIDNEY_R: 1.4 g
  KIDNEY_TOTAL: 2.8 g
  LIVER: 16.4 g
  A/G: 1.1
  ALP: 637.6 IU/L
  ALT: 40 IU/L
  AST: 66.6 IU/L
  BUN: 20.4 mg/dL
  CRE: 0.6 mg/dL
  Ca: 10.2 mg/dL
  Cl: 101 meq/L
  DBIL: 0.1 mg/dL
  GLC: 284 mg/dL
  IP: 8.1 mg/dL
  K: 3.5 meq/L
  LDH: 178.2 IU/L
  Na: 140 meq/L
  PL: 158.2 mg/dL
  RALB: 3.1 g/dL
  TBIL: 0.2 mg/dL
  TC: 77.8 mg/dL
  TG: 113.6 mg/dL
  TP: 5.9 g/dL
  gamma-GTP: 1.4 IU/L
